Results taken from PMC7180718, “Synthesis, Docking Studies and Biological Activity of New Benzimidazole- Triazolothiadiazine Derivatives as Aromatase Inhibitor” (Molecules, 2020).
Read-outs that look alike come from different tables or passages of the source.

How the values were obtained:
[1] = tested on: MCF-7 breast cancer cell line; assay: MTT cytotoxicity assay, MCF-7; assay type: cell-based, human
Experimental: (§1) The newly synthesized compounds were evaluated for their in vitro anticancer potential against MCF-7 breast cancer cell lines by MTT assay using cisplatin as a reference standard. The 50% inhibitory concentration (IC50) values were determined for these compounds. In addition, the cytotoxic activities of compounds 5c, 5e, 5k, and 5m were assessed against healthy NIH3T3 [25] cells, in order to express the selectivity toward carcinogenic cells. The IC50 values of test compounds were determined as the mean IC50 of 4 independent experiments.
(§2) The anticancer activity of compounds 5a–5p were screened according to the MTT assays. The MTT assays were performed as previously described. Cisplatin was used as the reference drug for the MCF7 cell line in the MTT assays.

[2] = tested on: NIH3T3 cells; assay: MTT cytotoxicity assay, healthy NIH3T3 cells; assay type: cell-based
Experimental: as §1, §2

[3] = molecular target: T1, recombinant human aromatase (Homo sapiens, UniProt P11511); assay: Fluorometric aromatase (CYP19A) inhibitor screening kit (Bio Vision); assay type: biochemical; details: read-out: IC50 Aromatase Inhibition
T1 construct: purchased Bio Vision
T1 sequence (P11511 1-503): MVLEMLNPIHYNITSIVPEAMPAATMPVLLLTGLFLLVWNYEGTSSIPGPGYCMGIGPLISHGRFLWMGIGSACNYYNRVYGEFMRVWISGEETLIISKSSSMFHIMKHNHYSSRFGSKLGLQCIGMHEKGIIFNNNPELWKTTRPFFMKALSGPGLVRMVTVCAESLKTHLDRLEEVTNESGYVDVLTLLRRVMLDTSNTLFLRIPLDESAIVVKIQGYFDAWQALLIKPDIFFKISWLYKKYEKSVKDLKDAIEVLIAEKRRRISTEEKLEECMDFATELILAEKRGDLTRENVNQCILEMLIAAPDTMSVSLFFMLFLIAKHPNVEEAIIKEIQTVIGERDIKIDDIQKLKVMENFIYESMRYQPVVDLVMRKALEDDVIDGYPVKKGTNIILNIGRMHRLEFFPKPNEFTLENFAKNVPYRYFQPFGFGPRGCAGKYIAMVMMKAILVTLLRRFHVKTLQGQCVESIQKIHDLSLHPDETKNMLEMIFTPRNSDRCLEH

[4] = fluorometric kit, letrozole as reference

Question: What does the source list for `N.N.[Cl][Pt][Cl]` [Cisplatin, reference compound]?
Answer: IC50 ([1]; n = 4): 0.02 ± 0.009 µM; IC50 ([2]; n = 4): ≥ 1000 µM

Question: For `c1ccc(C2=Nn3c(nnc3-c3ccc(-c4nc5ccccc5[nH]4)cc3)SC2)cc1` [Compound 5a, 3-(4-(1H-benzo[d]imidazol-2-yl)phenyl)-6-phenyl-7H-[1,2,4]triazole[3,4-b][1,3,4] thiadiazine], which IC50 ([1]; n = 4) is on record?
Answer: 0.142 ± 0.007 µM

Question: For `Fc1ccc(C2=Nn3c(nnc3-c3ccc(-c4nc5ccccc5[nH]4)cc3)SC2)cc1` [Compound 5c, 3-(4-(1H-benzo[d]imidazol-2-yl)phenyl)-6-(4-fluorophenyl)-7H-[1,2,4]triazole[3,4-b][1,3,4] thiadiazine], which IC50 ([1]; n = 4) is on record?
Answer: 0.119 ± 0.005 µM

Question: And the IC50 ([2]; n = 4)?
Answer: 81.8 ± 2.4 µM

Question: And the IC50 [3, 4]?
Answer: 1.72 ± 0.042 µM

Question: Which IC50 ([1]; n = 4) does the source give for `Cc1ccc(C2=Nn3c(nnc3-c3ccc(-c4nc5ccccc5[nH]4)cc3)SC2)cc1` [Compound 5d, 3-(4-(1H-benzo[d]imidazol-2-yl)phenyl)-6-(4-methylphenyl)-7H-[1,2,4]triazole[3,4-b][1,3,4] thiadiazine] here?
Answer: 0.194 ± 0.006 µM

Question: For `N#Cc1ccc(C2=Nn3c(nnc3-c3ccc(-c4nc5ccccc5[nH]4)cc3)SC2)cc1` [Compound 5e, 3-(4-(1H-benzo[d]imidazol-2-yl)phenyl)-6-(4-cyanophenyl)-7H-[1,2,4]triazole[3,4-b][1,3,4] thiadiazine], which IC50 ([1]; Homo sapiens, MCF7, n = 4) is on record?
Answer: 0.016 ± 0.001 µM

Question: And the IC50 ([2]; Mus musculus, NIH3T3, n = 4)?
Answer: ≥ 1000 µM

Question: What about the IC50 [3] of the same compound?
Answer: 0.032 ± 0.001 µM

Question: What about the melting point of the same compound?
Answer: 259.3 to 263.1 °C

Question: With `Brc1ccc(C2=Nn3c(nnc3-c3ccc(-c4nc5ccccc5[nH]4)cc3)SC2)cc1` [Compound 5f, 3-(4-(1H-benzo[d]imidazol-2-yl)phenyl)-6-(4-bromophenyl)-7H-[1,2,4]triazole[3,4-b][1,3,4] thiadiazine] as the compound, how does the IC50 ([1]; n = 4) read?
Answer: 0.318 ± 0.019 µM

Question: For `Fc1ccc(C2=Nn3c(nnc3-c3ccc(-c4nc5ccccc5[nH]4)cc3)SC2)c(F)c1` [Compound 5g, 3-(4-(1H-benzo[d]imidazol-2-yl)phenyl)-6-(2,4-difluorohenyl)-7H-[1,2,4]triazole [3,4-b][1,3,4] thiadiazine], which IC50 ([1]; n = 4) is on record?
Answer: 0.245 ± 0.004 µM

Question: Which IC50 ([1]; n = 4) does the source give for `Clc1ccc(C2=Nn3c(nnc3-c3ccc(-c4nc5ccccc5[nH]4)cc3)SC2)c(Cl)c1` [Compound 5h, 3-(4-(1H-benzo[d]imidazol-2-yl)phenyl)-6-(2,4-dichlorophenyl)-7H-[1,2,4]triazole[3,4-b] [1,3,4] thiadiazine] here?
Answer: 0.342 ± 0.017 µM

Question: For `Clc1ccc2[nH]c(-c3ccc(-c4nnc5n4N=C(c4ccccc4)CS5)cc3)nc2c1` [Compound 5i, 3-(4-(5-chloro-1H-benzo[d]imidazol-2-yl)phenyl)-6-phenyl-7H-[1,2,4]triazole[3,4-b][1,3,4] thiadiazine], which IC50 ([1]; n = 4) is on record?
Answer: 0.205 ± 0.005 µM

Question: With `Clc1ccc(C2=Nn3c(nnc3-c3ccc(-c4nc5cc(Cl)ccc5[nH]4)cc3)SC2)cc1` [Compound 5j, 3-(4-(5-chloro-1H-benzo[d]imidazol-2-yl)phenyl)-6-(4-chlorophenyl)-7H-[1,2,4]triazole [3,4-b][1,3,4] thiadiazine] as the compound, how does the IC50 ([1]; n = 4) read?
Answer: 0.258 ± 0.011 µM

Question: What does the source list for `Fc1ccc(C2=Nn3c(nnc3-c3ccc(-c4nc5cc(Cl)ccc5[nH]4)cc3)SC2)cc1` [Compound 5k, 3-(4-(5-chloro-1H-benzo[d]imidazol-2-yl)phenyl)-6-(4-fluorophenyl)-7H-[1,2,4]triazole [3,4-b][1,3,4] thiadiazine]?
Answer: IC50 ([1]; n = 4): 0.11 ± 0.005 µM; IC50 ([2]; n = 4): 77.6 ± 2.1 µM; IC50 [3, 4]: 2.28 ± 0.106 µM

Question: For `Cc1ccc(C2=Nn3c(nnc3-c3ccc(-c4nc5cc(Cl)ccc5[nH]4)cc3)SC2)cc1` [Compound 5l, 3-(4-(5-chloro-1H-benzo[d]imidazol-2-yl)phenyl)-6-(4-methylphenyl)-7H-[1,2,4]triazole [3,4-b][1,3,4] thiadiazine], which IC50 ([1]; n = 4) is on record?
Answer: 0.352 ± 0.019 µM

Question: For `N#Cc1ccc(C2=Nn3c(nnc3-c3ccc(-c4nc5cc(Cl)ccc5[nH]4)cc3)SC2)cc1` [Compound 5m, 3-(4-(5-chloro-1H-benzo[d]imidazol-2-yl)phenyl)-6-(4-cyanophenyl)-7H-[1,2,4]triazole [3,4-b][1,3,4] thiadiazine], which IC50 ([1]; n = 4) is on record?
Answer: 0.018 ± 0.001 µM

Question: And the IC50 ([2]; n = 4)?
Answer: ≥ 1000 µM

Question: What about the IC50 [3, 4] of the same compound?
Answer: 1.56 ± 0.064 µM

Question: Which IC50 ([1]; n = 4) does the source give for `Clc1ccc2[nH]c(-c3ccc(-c4nnc5n4N=C(c4ccc(Br)cc4)CS5)cc3)nc2c1` [Compound 5n, 3-(4-(5-chloro-1H-benzo[d]imidazol-2-yl)phenyl)-6-(4-bromophenyl)-7H-[1,2,4]triazole [3,4-b][1,3,4] thiadiazine] here?
Answer: 0.264 ± 0.011 µM

Question: For `Fc1ccc(C2=Nn3c(nnc3-c3ccc(-c4nc5cc(Cl)ccc5[nH]4)cc3)SC2)c(F)c1` [Compound 5o, 3-(4-(5-chloro-1H-benzo[d]imidazol-2-yl)phenyl)-6-(2,4-difluorohenyl)-7H-[1,2,4]triazole [3,4-b][1,3,4] thiadiazine], which IC50 ([1]; n = 4) is on record?
Answer: 0.373 ± 0.011 µM

Question: With `Clc1ccc(C2=Nn3c(nnc3-c3ccc(-c4nc5cc(Cl)ccc5[nH]4)cc3)SC2)c(Cl)c1` [Compound 5p, 3-(4-(5-chloro-1H-benzo[d]imidazol-2-yl)phenyl)-6-(2,4-dichlorophenyl)-7H-[1,2,4]triazole [3,4-b][1,3,4] thiadiazine] as the compound, how does the IC50 ([1]; n = 4) read?
Answer: 0.147 ± 0.001 µM
